For 25 compounds, IC50 results are on record in patent US7977387B2, “Aminobenzophenone compounds” (Leo Pharma A/S, priority 2003, dated 2011).

One experiment concerns IL-1β. Briefly: Inhibition of IL-1β secretion in LPS stimulated peripheral blood mononuclear cells. Format: cell-based. Particulars: PBMC; LPS stimulated human peripheral blood mononuclear cells, 18 hours, ELISA; read-out: The median inhibition concentration (IC50, nM) of IL-1β. The protocol:
(§1) To study the effect of compounds of the present invention in vitro, the inhibition of IL-1β and TNF-α secretion was determined using the following procedure:
(§2) Cytokine production was measured in the media from lipopolysaccharide (LPS) stimulated peripheral blood mononuclear cells. The mononuclear cells were isolated from human peripheral blood by Lymphoprep® (Nycomed, Norway) fractionation and suspended in RPMI 1640 (growth medium) with foetal calf serum (FCS, 2%), at a concentration of 5×10^5 cells/ml. The cells were incubated in 24-well tissue culture plates in 1 ml aliquots. Test compounds were dissolved in dimethylsulfoxide (DMSO, 10 mM) and were diluted with the medium. Compounds were added to the cells for 30 minutes, then LPS ([…] final concentration) was added. The plates were incubated for 18 hours, and the concentration of IL-β and TNF-α in the medium was determined by enzyme-linked immunosorbent assays. The median inhibitory concentrations (IC50) of the compounds were calculated.
(In general: In an ELISA, binding on a coated surface is turned into a signal by an enzyme label.)

The test system of another experiment is TNF-α. Briefly: Inhibition of TNF-α secretion in LPS stimulated peripheral blood mononuclear cells. Format: cell-based. Particulars: PBMC; LPS stimulated human peripheral blood mononuclear cells, 18 hours, ELISA; read-out: The median inhibition concentration (IC50, nM) of TNF-α. The protocol: as §1, §2

Take `CCOC(=O)CCNC(=O)Nc1ccc(C)c(C(=O)c2ccc(Nc3ccc(F)cc3F)cc2Cl)c1` [Compound 265, 3-(3-{3-[2-Chloro-4-(2,4-difluoro-phenylamino)-benzoyl]-4-methyl-phenyl}-ureido)-propionic acid ethyl ester]: the values for the IC50 with IL-1β and in the experiment with TNF-α were 1 nM and 0.3 nM, respectively.

Regarding `COc1ccc(C(=O)NCCO)cc1C(=O)c1ccc(Nc2ccccc2)cc1Cl` [Compound 195, 3-(2-Chloro-4-phenylamino-benzoyl)-N-(2-hydroxy-ethyl)-4-methoxy-benzamide], the results for the IC50 in the experiment with IL-1β and with TNF-α were 2.2 nM and 1 nM, respectively.

With `Cc1ccc(NC(=O)CCS(C)(=O)=O)cc1C(=O)c1ccc(Nc2ccc(F)cc2F)cc1Cl` [Compound 252, N-{3-[2-Chloro-4-(2,4-difluoro-phenylamino)-benzoyl]-4-methyl-phenyl}-3-methanesulfonyl-propionamide], the IC50 in the experiment with IL-1β and in the experiment with TNF-α was 0.6 nM each time.

Consider `CCOC(=O)Nc1ccc(C)c(C(=O)c2ccc(Nc3ccc(F)cc3F)cc2Cl)c1` [Compound 279, {3-[2-Chloro-4-(2,4-difluoro-phenylamino)-benzoyl]-4-methyl-phenyl}-carbamic acid ethyl ester], for which the IC50 in the experiment with IL-1β is 0.6 nM; with TNF-α, 0.5 nM.

As for `COCCNC(=O)c1ccc(C)c(C(=O)c2ccc(Nc3ccc(F)cc3C)cc2Cl)c1` [Compound 106, 3-[2-Chloro-4-(4-fluoro-2-methyl-phenylamino)benzoyl]-N-(2-methoxyethyl)-4-methylbenzamide], the IC50 in the experiment with IL-1β worked out at 2 nM; with TNF-α, 1 nM.

Take `Cc1ccc(NC(=O)CCN2CCOCC2)cc1C(=O)c1ccc(Nc2ccc(F)cc2F)cc1Cl` [Compound 244, N-{3-[2-Chloro-4-(2,4-difluoro-phenylamino)-benzoyl]-4-methyl-phenyl}-3-morpholin-4-yl-propionamide]: the IC50 is 1.3 nM in the experiment on IL-1β and 0.5 nM in the experiment on TNF-α.

Regarding `Cc1cc(F)ccc1Nc1ccc(C(=O)c2cc(C(=O)NCc3ccncc3)ccc2C)c(Cl)c1` [Compound 109], the IC50 turned out to be 4 nM with IL-1β and 3.2 nM in the experiment on TNF-α.

In the case of `COc1ccc(C(=O)NCCF)cc1C(=O)c1ccc(Nc2ccc(F)cc2)cc1Cl` [Compound 197, 3-[2-Chloro-4-(4-fluoro-phenylamino)-benzoyl]-N-(2-fluoro-ethyl)-4-methoxy-benzamide], the IC50 was 3.2 nM in the experiment on IL-1β and 1.8 nM in the experiment with TNF-α.

For `COc1ccc(COC(C)=O)cc1C(=O)c1ccc(Nc2ccc(F)cc2F)cc1Cl` [Compound 336, Acetic acid 3-[2-chloro-4-(2,4-difluoro-phenylamino)-benzoyl]-4-methoxy-benzyl ester], the values for the IC50 in the experiment on IL-1β and in the experiment on TNF-α were 5 nM and 2 nM, respectively.

Regarding `Cc1ccc(C(=O)NCC(=O)NCCC(N)=O)cc1C(=O)c1ccc(Nc2ccc(F)cc2F)cc1Cl` [Compound 168, N-[(2-Carbamoyl-ethylcarbamoyl)-methyl]-3-[2-chloro-4-(2,4-difluoro-phenylamino)-benzoyl]-4-methyl-benzamide], the IC50 in the experiment on IL-1β and in the experiment with TNF-α was 2.5 nM throughout.

Consider `COC(=O)CCC(=O)CNC(=O)c1ccc(C)c(C(=O)c2ccc(Nc3ccc(F)cc3F)cc2Cl)c1` [Compound 167, 5-{3-[2-chloro-4-(2,4-difluoro-phenylamino)-benzoyl]-4-methyl-benzoylamino}-4-oxo-pentanoic acid methyl ester], for which the results for the IC50 in the experiment with IL-1β and with TNF-α were 1.7 nM and 2 nM, respectively.

Consider `CCOC(=O)CNC(=O)CNC(=O)c1ccc(OC)c(C(=O)c2ccc(Nc3c(F)cccc3F)cc2Cl)c1` [Compound 183, (2-{3-[2-Chloro-4-(2,6-difluoro-phenylamino)-benzoyl]-4-methoxy-benzoylamino}-acetylamino)-acetic acid ethyl ester], for which the IC50 in the experiment with IL-1β was 2 nM; in the experiment on TNF-α, 0.7 nM.

Take `CCOC(=O)CNC(=O)CNC(=O)c1ccc(C)c(C(=O)c2ccc(Nc3ccc(Cl)cc3F)cc2Cl)c1` [Compound 122, (2-{3-[2-Chloro-4-(4-chloro-2-fluoro-phenylamino)-benzoyl]-4-methyl-benzoylamino}-acetylamino)-acetic acid ethyl ester]: the IC50 with IL-1β was determined as 0.5 nM; in the experiment with TNF-α, 0.2 nM.

Consider `Cc1ccc(C(=O)NCCO)cc1C(=O)c1ccc(Nc2cccc(F)c2)cc1Cl` [Compound 193, 3-[2-Chloro-4-(3-fluoro-phenylamino)-benzoyl]-N-(2-hydroxy-ethyl)-4-methyl-benzamide], for which the figures for the IC50 with IL-1β and with TNF-α were 4 nM and 2.5 nM, respectively.

`Cc1cc(F)ccc1Nc1ccc(C(=O)c2cc(C(=O)NCCCN3CCOCC3)ccc2C)c(Cl)c1` [Compound 107, 3-[2-Chloro-4-(4-fluoro-2-methylphenylamino)benzoyl]-4-methyl-N-(3-morpholin-4-yl-propyl)benzamide]: the IC50 in the experiment with IL-1β and with TNF-α was 3.2 nM each time.

Regarding `COc1ccc(C(=O)NCCO)cc1C(=O)c1ccc(Nc2ccc(F)cc2)cc1Cl` [Compound 194, 3-[2-Chloro-4-(4-fluoro-phenylamino)-benzoyl]-N-(2-hydroxy-ethyl)-4-methoxy-benzamide], the results for the IC50 in the experiment on IL-1β and with TNF-α were 0.6 nM and 0.3 nM, respectively.

In the case of `CCOC(=O)CNC(=O)CNC(=O)c1ccc(C)c(C(=O)c2ccc(Nc3ccc(F)cc3F)cc2Cl)c1` [Compound 169, (2-{3-[2-Chloro-4-(2,4-difluoro-phenylamino)-benzoyl]-4-methyl-benzoylamino}-acetylamino)-acetic acid ethyl ester], the IC50 with IL-1β and in the experiment on TNF-α was 0.4 nM in each case.

Take `CC(=O)Nc1cccc(-c2ccc(C)c(C(=O)c3ccc(Nc4ccc(F)cc4F)cc3Cl)c2)c1` [Compound 285, N-{3′-[2-Chloro-4-(2,4-difluoro-phenylamino)-benzoyl]-4′-methyl-biphenyl-3-yl}-acetamide]: the IC50 in the experiment with IL-1β was found to be 1.4 nM; in the experiment on TNF-α it was 0.6 nM.

With `Cc1ccc(C(=O)NCCCCO)cc1C(=O)c1ccc(Nc2ccc(F)cc2F)cc1Cl` [Compound 159, 3-[2-Chloro-4-(2,4-difluoro-phenylamino)-benzoyl]-N-(4-hydroxy-butyl)-4-methyl-benzamide], the IC50 stood at 7.9 nM in the experiment with IL-1β and 1.3 nM with TNF-α.

In the case of `Cc1ccc(NC(=O)CCO)cc1C(=O)c1ccc(Nc2ccc(F)cc2F)cc1Cl` [Compound 245, N-{3-[2-Chloro-4-(2,4-difluoro-phenylamino)-benzoyl]-4-methyl-phenyl}-3-hydroxy-propionamide], the IC50 in the experiment with IL-1β is 3.5 nM; in the experiment on TNF-α, 0.9 nM.

With `Cc1ccc(C(=O)NCC(F)(F)C(F)(F)F)cc1C(=O)c1ccc(Nc2ccc(F)cc2F)cc1Cl` [Compound 154, 3-[2-Chloro-4-(2,4-difluoro-phenylamino)-benzoyl]-4-methyl-N-(2,2,3,3,3-pentafluoro-propyl)-benzamide], the IC50 was 3.2 nM in the experiment on IL-1β and 2.5 nM in the experiment on TNF-α.

Consider `COc1cccc(NC(=O)Nc2ccc(C)c(C(=O)c3ccc(Nc4ccc(F)cc4F)cc3Cl)c2)c1` [Compound 262, 1-{3-[2-Chloro-4-(2,4-difluoro-phenylamino)-benzoyl]-4-methyl-phenyl}-3-(3-methoxy-phenyl)-urea], for which the IC50 in the experiment on IL-1β came to 2 nM; in the experiment on TNF-α it was 0.6 nM.

For the compound `Cc1ccc(C(=O)NCCO)cc1C(=O)c1ccc(Nc2ccccc2)cc1Cl` [Compound 191, 3-(2-Chloro-4-phenylamino-benzoyl)-N-(2-hydroxy-ethyl)-4-methyl-benzamide], the IC50 in the experiment on IL-1β came to 1.1 nM; in the experiment on TNF-α, 0.5 nM.

Take `COc1ccc(C(=O)NC(C)(CO)CO)cc1C(=O)c1ccc(Nc2c(F)cccc2F)cc1Cl` [Compound 180, 3-[2-Chloro-4-(2,6-difluoro-phenylamino)-benzoyl]-N-(2-hydroxy-1-hydroxymethyl-1-methyl-ethyl)-4-methoxy-benzamide]: the IC50 was 2.5 nM with IL-1β and 3.2 nM with TNF-α.

With `Cc1ccc(C(=O)NCCCO)cc1C(=O)c1ccc(Nc2ccccc2N)cc1Cl` [Compound 118, 3-[4-(2-Aminophenylamino)-2-chlorobenzoyl]-N-(3-hydroxypropyl)-4-methylbenzamide], the IC50 with IL-1β amounted to 2.2 nM; in the experiment on TNF-α it was 2 nM.
